According to patent US5849259A, “3-,8-substituted deuteroporphyrin derivatives, pharmaceutical agents containing the latter and process for their production” (priority 1992, dated 1998):

Key:
[1] = test system: Novikoff-hepatoma; experiment: Signal intensity change in tissues of tumor-bearing (Novikoff-hepatoma, i.m.) nude rats, Bruker Biospec 2.35 Tesla, MSSE; assay type: in vivo, nude rats (LEW/Mol rnu/rnu); conditions: 0.1 mmol/kg i.v.
Excerpt: The measurements were made with a multi slice single echo sequence (MSSE). […] […] The relative intensities relative to the respective initial intensity (=1.00 set) are indicated.

[2] = Relaxivity; assay type: physicochemical
[3] = Tissue concentrations by ICP-AES 2 hours after 0.1 mmol/kg i.v. in nude mice with implanted carcinomas (HT29, WiDr, MATLu); assay type: in vivo, nude mice (Balb/c nu/nu)
Description: f) 9 nude mice (Balb/c nu/nu) with subcutaneously implanted carcinomas (HT29, WiDr and MATLu) were each administered by i.v. 0.1 mmol/kg of the deuteroporphyrin derivative of example 1c (10 mmol/L dissolved in bidistilled water, pH 7.2, 37° C.). After 2 hours, the animals were killed and dissected. The tissue concentrations were determined after corresponding working-up (HNO3 conc.) by ICP-AES and calculated for % of the administered dose per gram of tissue net weight. Moreover, tissue relaxation times T1 and T2 were determined (Bruker minispec pc 120). To determine the blank readings, control animals were correspondingly studied without KM-administration.

Question: With “N,N'-Bis[9-carboxylato-2,5,8-tris(carboxylatomethyl)-2,5,8-triazanonyl-carbamoyl]-mesoporphyrin-IX-13,17-diamide, digadolinium complex, disodium salt [Example 1c]” as the substance, how does the elimination route [1] read?
Answer: eliminated mainly renally

Question: What about the “average enhancement, Kidneys” value ([1]; 1 min) of the same substance?
Answer: 1.67 ± 0.35

Question: What about the “average enhancement, Liver” value ([1]; 1 min) of the same substance?
Answer: 1.43 ± 0.24

Question: And the “average enhancement, Muscle” value ([1]; 1 min)?
Answer: 1.60 ± 0.01

Question: And the “average enhancement, Tumor” value ([1]; 1 min)?
Answer: 1.63 ± 0.24

Question: What about the “average enhancement, Kidneys” value ([1]; 15 min) of the same substance?
Answer: 2.13 ± 0.28

Question: And the “average enhancement, Liver” value ([1]; 15 min)?
Answer: 1.34 ± 0.22

Question: And the “average enhancement, Muscle” value ([1]; 15 min)?
Answer: 1.54 ± 0.06

Question: And the “average enhancement, Tumor” value ([1]; 15 min)?
Answer: 1.71 ± 0.19

Question: What about the “average enhancement, Kidneys” value ([1]; 30 min) of the same substance?
Answer: 2.14 ± 0.38

Question: What about the “average enhancement, Liver” value ([1]; 30 min) of the same substance?
Answer: 1.31 ± 0.21

Question: And the “average enhancement, Muscle” value ([1]; 30 min)?
Answer: 1.47 ± 0.08

Question: And the “average enhancement, Tumor” value ([1]; 30 min)?
Answer: 1.72 ± 0.23

Question: And the “average enhancement, Kidneys” value ([1]; 45 min)?
Answer: 2.10 ± 0.30

Question: And the “average enhancement, Liver” value ([1]; 45 min)?
Answer: 1.17 ± 0.16

Question: And the “average enhancement, Muscle” value ([1]; 45 min)?
Answer: 1.41 ± 0.10

Question: And the “average enhancement, Tumor” value ([1]; 45 min)?
Answer: 1.79 ± 0.21

Question: And the “average enhancement, Kidneys” value ([1]; 60 min)?
Answer: 2.12 ± 0.19

Question: And the “average enhancement, Liver” value ([1]; 60 min)?
Answer: 1.31 ± 0.09

Question: And the “average enhancement, Muscle” value ([1]; 60 min)?
Answer: 1.33 ± 0.05

Question: What about the “average enhancement, Tumor” value ([1]; 60 min) of the same substance?
Answer: 1.78 ± 0.24

Question: And the “average enhancement, Kidneys” value ([1]; 75 min)?
Answer: 1.93 ± 0.19

Question: What about the “average enhancement, Liver” value ([1]; 75 min) of the same substance?
Answer: 1.37 ± 0.05

Question: What about the “average enhancement, Muscle” value ([1]; 75 min) of the same substance?
Answer: 1.37 ± 0.01

Question: And the “average enhancement, Tumor” value ([1]; 75 min)?
Answer: 1.64 ± 0.17

Question: And the “average enhancement, Kidneys” value ([1]; 90 min)?
Answer: 1.96 ± 0.08

Question: And the “average enhancement, Liver” value ([1]; 90 min)?
Answer: 1.22 ± 0.24

Question: And the “average enhancement, Muscle” value ([1]; 90 min)?
Answer: 1.24 ± 0.03

Question: And the “average enhancement, Tumor” value ([1]; 90 min)?
Answer: 1.75 ± 0.27

Question: And the “average enhancement, Kidneys” value ([1]; 120 min)?
Answer: 1.92 ± 0.33

Question: And the “average enhancement, Liver” value ([1]; 120 min)?
Answer: 1.23 ± 0.07

Question: What about the “average enhancement, Muscle” value ([1]; 120 min) of the same substance?
Answer: 1.28 ± 0.08

Question: What about the “average enhancement, Tumor” value ([1]; 120 min) of the same substance?
Answer: 1.77 ± 0.23

Question: What about the “average enhancement, Kidneys” value ([1]; 150 min) of the same substance?
Answer: 1.86 ± 0.18

Question: What about the “average enhancement, Liver” value ([1]; 150 min) of the same substance?
Answer: 1.16 ± 0.22

Question: What about the “average enhancement, Muscle” value ([1]; 150 min) of the same substance?
Answer: 1.20 ± 0.06

Question: And the “average enhancement, Tumor” value ([1]; 150 min)?
Answer: 1.73 ± 0.23

Question: And the “average enhancement, Kidneys” value ([1]; 180 min)?
Answer: 1.84 ± 0.24

Question: What about the “average enhancement, Liver” value ([1]; 180 min) of the same substance?
Answer: 1.07 ± 0.20

Question: What about the “average enhancement, Muscle” value ([1]; 180 min) of the same substance?
Answer: 1.15 ± 0.04

Question: And the “average enhancement, Tumor” value ([1]; 180 min)?
Answer: 1.85 ± 0.09

Question: What about the “average enhancement, Kidneys” value ([1]; 190 min) of the same substance?
Answer: 1.73 ± 0.00

Question: What about the “average enhancement, Liver” value ([1]; 190 min) of the same substance?
Answer: 1.27 ± 0.00

Question: And the “average enhancement, Muscle” value ([1]; 190 min)?
Answer: 1.21 ± 0.00

Question: What about the “average enhancement, Tumor” value ([1]; 190 min) of the same substance?
Answer: 1.45 ± 0.00

Question: And the “signal intensity, liver and muscles” value ([1]; after 2-3 hours)?
Answer: the initial intensity almost returned

Question: And the “increase in the intensity, studied tissues” value ([1]; directly after administration)?
Answer: ~60%

Question: And the “signal intensity, tumor” value ([1]; during the observation time)?
Answer: remained at an almost unchanged high level

Question: What about the “signal intensity, kidneys relative to tumors” value ([1]; up to 150 minutes) of the same substance?
Answer: high above that which could be determined in the tumors

Question: What about the relaxivity [2] of the same substance?
Answer: 17.86 1 mmol^-1 s^-1

Question: And the “tissue concentration in prostate cancer (MATLu) versus colon cancers” value ([3]; 2 hours, 0.1 mmol/kg i.v.)?
Answer: greater than in the colon cancers

Question: And the “tissue concentration, kidneys” value ([3]; HT29 mice, 2 hours)?
Answer: 6.23 ± 1.80 % of the administered dose per gram of tissue net weight

Question: What about the “tissue concentration, kidneys” value ([3]; MATLu mice, 2 hours) of the same substance?
Answer: 2.73 ± 0.33 % of the administered dose per gram of tissue net weight

Question: And the “tissue concentration, kidneys” value ([3]; WiDr mice, 2 hours)?
Answer: 4.23 ± 0.19 % of the administered dose per gram of tissue net weight

Question: And the “tissue concentration, HT29 tumor” value ([3]; mouse, in vivo, iv, 2 h)?
Answer: 1.00 ± 0.27 % of the administered dose per gram of tissue net weight

Question: And the “tissue concentration, MATLu tumor” value ([3]; mouse, in vivo, iv, 2 h)?
Answer: 1.92 ± 2.09 % of the administered dose per gram of tissue net weight

Question: What about the “tissue concentration, WiDr tumor” value ([3]; mouse, in vivo, iv, 2 h) of the same substance?
Answer: 0.83 ± 0.05 % of the administered dose per gram of tissue net weight
